Test [1] concerns M. smegmatis. In words: Microplate Alamar Blue Assay (MABA) against M. smegmatis. Type of test: cell-based, Mycobacterium smegmatis. As to conditions: Mycolicibacterium smegmatis; read-out: M. smegmatis (% of inhibition) 50 μg/mL.
Test [2] concerns M. tuberculosis H37Rv. Nature of the test: Microplate Alamar Blue Assay (MABA) against M. tuberculosis H37Rv. As to conditions: Mycobacterium tuberculosis, read-out: M. tuberculosis H37Rv (% of inhibition) 50 μg/mL. Type of test: cell-based. Background: Resazurin is reduced to fluorescent resorufin, in cell work by metabolically active cells.

As to `Cc1ccc(S(=O)(=O)Nc2oc(-c3ccccc3)c(-c3ccccc3)c2C#N)cc1` [Compound 2d, N-(3-Cyano-4,5-diphenylfuran-2-yl)-4-methylbenzenesulfonamide], the values for the inhibition at 50 µg/mL in test [1] and in test [2] were 37% and 9%, respectively.
As for `N#Cc1c(NC(=O)c2ccc(Cl)cc2)oc(-c2ccccc2)c1-c1ccccc1` [Compound 2c, 4-Chloro-N-(3-cyano-4,5-diphenylfuran-2-yl)benzamide], the figures for the inhibition at 50 µg/mL in test [1] and in test [2] were 25% and 19%, respectively.
For `N#Cc1c(NC(=O)c2ccccc2)oc(-c2ccccc2)c1-c1ccccc1` [Compound 2b, N-(3-Cyano-4,5-diphenylfuran-2-yl)benzamide], the inhibition at 50 µg/mL is 13% in test [1] and 6% in test [2].
On to `CC(=O)Nc1oc(-c2ccccc2)c(-c2ccccc2)c1C#N` [Compound 2a, N-(3-Cyano-4,5-diphenylfuran-2-yl)acetamide], for which the inhibition at 50 µg/mL was 38% in test [1] and 27% in test [2].
Turning to `N#Cc1c(N)oc(-c2ccccc2)c1-c1ccccc1` [Compound 1, 2-Amino-4,5-diphenylfuran-3-carbonitrile], the inhibition at 50 µg/mL in test [1] is 32%; in test [2], 6%.

Source of the values: patent US11987563B1, “3-cyano 4,5-diphenyl furan-2-carboxamides as antitubercular agents” (KING FAISAL UNIVERSITY, priority 2023, dated 2024).
